{"source": "paper PMC6152194", "about": "(Molecules : A Journal of Synthetic Chemistry and Natural …, 2017)", "key": {"horse BChE [1]": {"biological_target": "T1, horse BChE (Equus caballus, UniProt P81908)", "T1 construct": "purchased Worthington Biochemical Corporation", "T1 sequence (P81908 whole entry)": "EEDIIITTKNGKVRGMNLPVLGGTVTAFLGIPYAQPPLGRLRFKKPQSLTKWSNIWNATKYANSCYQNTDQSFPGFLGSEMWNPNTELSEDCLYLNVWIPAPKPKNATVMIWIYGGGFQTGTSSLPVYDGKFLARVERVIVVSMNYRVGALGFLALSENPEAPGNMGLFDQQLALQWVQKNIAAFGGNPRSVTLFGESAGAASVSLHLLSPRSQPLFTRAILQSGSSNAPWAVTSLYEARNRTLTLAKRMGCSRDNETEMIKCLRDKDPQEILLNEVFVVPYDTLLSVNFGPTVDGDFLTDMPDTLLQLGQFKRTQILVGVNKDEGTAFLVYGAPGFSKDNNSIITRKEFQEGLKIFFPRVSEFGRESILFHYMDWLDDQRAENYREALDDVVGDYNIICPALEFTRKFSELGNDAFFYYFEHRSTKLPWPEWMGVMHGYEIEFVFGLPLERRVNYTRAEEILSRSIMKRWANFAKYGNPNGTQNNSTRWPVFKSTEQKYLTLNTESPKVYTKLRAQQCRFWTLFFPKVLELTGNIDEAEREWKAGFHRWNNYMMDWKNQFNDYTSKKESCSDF", "conditions": "hydrolysis of BSCh by horse BChE, same conditions; cited from earlier work"}, "horse BChE [2]": {"biological_target": "T1, horse BChE", "experiment": "biochemical", "type": "biochemical", "conditions": "for type of inhibition: hydrolysis of 50 μM BSCh, progress curves to 600 s; for Kon: pH 7.0", "source_text": "Purified horse BChE was from Worthington Biochemical Corporation, dithio-bis-di-nitro benzoic acid and butyrylthiocholine iodide (BSCh) were from Sigma, tetramethylammonium iodide (TMA), tetraethylammonium iodide (TEA), edrophonium chloride (EDR), and methanesulfonylfluoride (MSF) were from BDH; decamethonium bromide (DME) was from Koch Light Laboratories; sodium fluoride and d-Tubocurarine were from Fluka AG. N-((1-benzylpiperidin-3-yl)methyl)-N-methylnaphthalene-2-sulfonamide (942) was synthesized in the Faculty of Pharmacy, University of Ljubljana (Ljubljana, Slovenia). All other reagents used were of analytical grade. The experiments were carried out at 25 °C in 25 mM phosphate buffer, pH 7.0.\nA series of compounds were tested by measuring the progress curves for BSCh hydrolysis by horse BChE in the absence and presence of each compound at a single concentration over 10 min, in a 0.6 mL cuvette, using the method of Ellman et al.. […] The concentration of horse BChE, which was always added last, was ~1 nM, for hydrolysis of 50 μM BSCh to completion (in most cases), in the presence of 1 mM dithio-bis-di-nitro benzoic acid. Reaching the plateau was important to get an exact estimate of the actual initial BSCh concentration. This was achieved by conversion of the change in absorbance at 412 nm of the resulting thio-nitro benzoate, using a molar absorption coefficient of 13,800 mol^−1 cm^−1. All of the measurements were conducted using a conventional spectrophotometer (Lambda 45/Vis; Perkin-Elmer), and a 10-s lag period was added before the start of each measurement. The progress curves were then extrapolated to start at the origin prior to the analysis.\nThe progress-curve analysis was performed using the ENZO web application (Figure 2), implemented at www.enzo.cmm.ki.si. For rapid determination of the kinetics mechanisms and parameters, the Van Slyke–Cullen reaction scheme for substrate hydrolysis by horse BChE was combined with a reversible competitive inhibition mechanism, as expected for active-site-directed ligands. […] In the initial evaluation, all of the second-order binding rate constants (kon’s), although not the constant for MSF, were set to the diffusion rate-limited value of 2 ×10^8 M^−1 s^−1. Therefore, only the first-order dissociation rate constants, together with the substrate specificity constant kcat/Km, the initial substrate concentration, and the added horse BChE active-site concentration, had to be evaluated. The kcat of 663 s^−1 for the hydrolysis of BSCh by horse BChE was taken from a previous study performed under the same conditions.\nTherefore, a similar experiment was performed, but in the presence of three additional sodium fluoride concentrations (0.25, 1, 2.5 mM). Each of these measurements was performed twice in a row to determine the reliability of the data obtained. The progress curve analysis was then performed using four types of classical inhibition mechanisms: competitive, uncompetitive, non-competitive, and mixed. Again, a 10-s lag period was added to the time-course of each measurement prior to the analysis using the ENZO web application."}, "[3]": {"conditions": "50 μM BSCh, 25 °C, 25 mM phosphate buffer pH 7.0, single progress curve, competitive mechanism, read-out: Ki"}, "[4]": {"conditions": "slow isomerization step after instantaneous binding, 50 μM BSCh"}}, "note": "Where “and” joins values, the source holds several entries; their conditions need not be identical. Identical values can stand only once. Like-named read-outs stand apart in the source and are kept apart here.", "data": [{"compound": "CCCC(=O)SCC[N+](C)(C)C.[I-]", "note": "[BSCh, butyrylthiocholine iodide]", "values": [{"measurement": "kcat", "setting": "horse BChE [1]", "value": 663, "unit": "s⁻¹"}]}, {"compound": "C[N+](C)(C)CCCCCCCCCC[N+](C)(C)C", "note": "[Decamethonium, decamethonium bromide]", "values": [{"measurement": "Ki", "setting": "horse BChE [2]", "value": 7.6, "unit": "µM"}, {"measurement": "type of inhibition", "setting": "horse BChE [2]", "value": "reversible competitive inhibitors"}]}, {"compound": "CC[N+](C)(C)c1cccc(O)c1", "note": "[Edrophonium, edrophonium chloride]", "values": [{"measurement": "Ki", "setting": "horse BChE [2]", "value": 21, "unit": "µM"}, {"measurement": "type of inhibition", "setting": "horse BChE [2]", "value": "reversible competitive inhibitors"}]}, {"compound": "CS(=O)(=O)F", "note": "[Methanesulfonylfluoride, methanesulfonylfluoride]", "values": [{"measurement": "type of inhibition", "setting": "horse BChE [2]", "value": "irreversible inhibitor"}, {"measurement": "Kon", "setting": "horse BChE [2]; irreversible inhibition step, 15 mM MSF, 50 μM BSCh, 25 °C", "value": 0.39, "unit": "s⁻¹"}]}, {"compound": "[F-].[Na+]", "note": "[Sodium fluoride, sodium fluoride]", "values": [{"measurement": "Ki", "setting": "horse BChE [2]; competitive component of mixed inhibition, from Figure 3, 0.25, 0.5, 1 and 2.5 mM sodium fluoride, 50 μM BSCh, read-out: Ki", "value": 830, "unit": "µM"}, {"measurement": "type of inhibition", "setting": "horse BChE [2]", "value": "mixed reversible inhibitor"}, {"measurement": "uncompetitive component stronger than the competitive component", "setting": "horse BChE [2]; mixed inhibition model, Table 1", "value": 2.4, "unit": "fold"}, {"measurement": "Kii", "setting": "horse BChE [2]; uncompetitive component of mixed inhibition, from Figure 3, 0.25, 0.5, 1 and 2.5 mM sodium fluoride, 50 μM BSCh", "value": 0.34, "unit": "mM"}]}, {"compound": "CC[N+](CC)(CC)CC.[I-]", "note": "[Tetraethylammonium, tetraethylammonium iodide]", "values": [{"measurement": "Ki", "setting": "horse BChE [2]; [3]", "value": 1500, "unit": "µM"}, {"measurement": "type of inhibition", "setting": "horse BChE [2]", "value": "reversible competitive inhibitors"}]}, {"compound": "C[N+](C)(C)C.[I-]", "note": "[Tetramethylammonium, tetramethylammonium iodide]", "values": [{"measurement": "Ki", "setting": "horse BChE [2]; [3]", "value": 2400, "unit": "µM"}, {"measurement": "type of inhibition", "setting": "horse BChE [2]", "value": "reversible competitive inhibitors"}]}, {"compound": "CN(CC1CCCN(Cc2ccccc2)C1)S(=O)(=O)c1ccc2ccccc2c1", "note": "(centres unmarked) [compound 942, N-((1-benzylpiperidin-3-yl)methyl)-N-methylnaphthalene-2-sulfonamide]", "values": [{"measurement": "Kon", "setting": "horse BChE [2]; association rate constant, 50 μM BSCh, 25 °C", "value": "6.2e+07 M⁻¹ s⁻¹ and 6.2 M⁻¹ s⁻¹"}, {"measurement": "type of inhibition", "setting": "horse BChE [2]", "value": "tight binder"}, {"measurement": "Ki", "setting": "horse BChE [2]; read-out: Ki", "value": 0.00043, "unit": "µM"}]}, {"compound": "COc1cc2c3cc1Oc1cc(ccc1O)C[C@@H]1c4c(cc(OC)c(O)c4Oc4ccc(cc4)C[C@@H]3N(C)CC2)CC[N+]1(C)C", "note": "[d-Tubocurarine]", "values": [{"measurement": "Ki", "setting": "horse BChE [2]", "value": 5.1, "unit": "µM"}, {"measurement": "type of inhibition", "setting": "horse BChE [2]", "value": "slow binder"}, {"measurement": "K+isomerization", "setting": "horse BChE [2]; [4]", "value": 0.029, "unit": "s⁻¹"}, {"measurement": "K-isomerization", "setting": "horse BChE [2]; [4]", "value": 0.010, "unit": "s⁻¹"}]}, {"compound": "[I-].[Na+]", "note": "[sodium iodide]", "values": [{"measurement": "inhibition of BSCh hydrolysis", "setting": "horse BChE [2]; at 0.5 mM, data not shown", "value": "no inhibition"}]}]}
